Key:
[1] = test system: upper airway collapsibility in anaesthetized, spontaneously breathing pigs; test: pig model of obstructive sleep apnea (OSA): upper airway collapsibility under negative pressure; assay type: in vivo, German Landrace pigs
Source text: The therapeutic potential of the combination of a TASK1/3 channel blocker with a P2X3 receptor antagonist according to the present invention in sleep apnea can be assessed preclinically in a pig model of obstructive sleep apnea (OSA).
Using negative pressure, it is possible to induce collapse and thus obstruction of the upper respiratory tract in anaesthetized, spontaneously breathing pigs (Wirth K. J. et al., Sleep 36(5) (2013) pp. 699-708).
German Landrace pigs are used for the model. The pigs are anaesthetized and tracheotomized. Two tracheal cannulas are inserted into the trachea, one into the rostral part and the other into the caudal part of the trachea. Using a connection piece, the rostral cannula is connected to a tube to the negative pressure device and to the distal tracheal cannula. The distal tracheal cannula is additionally connected to a tube with an open end to atmosphere via a connection piece that served for free tracheal breathing, circumventing the upper airway. By appropriate opening and clamping of those tubes breathing can be switched from nasal breathing to breathing through the caudal tracheal cannula, circumventing the upper airway, and the (isolated) upper airway can be connected to the negative pressure device, causing airflow in the inspiratory direction.
At certain points in time, the collapsibility of the upper respiratory tract is tested by having the pig breathe via the caudal cannula and applying negative pressures of −50, −100 and −150 cm water head (cm H2O) to the upper respiratory tract. This causes the upper respiratory tract to collapse, which manifests itself in an interruption of the airflow and a pressure drop in the tube system. This test is conducted prior to the administration of the test substance and at certain intervals after the administration of the test substance. An appropriately effective test substance can prevent this collapse of the respiratory tract in the inspiratory phase.

[2] = free plasma concentrations of Gefapixant in the OSA pig model (FIG. 4); assay type: in vivo, German Landrace pigs; details: pigs, minimal effective dose of Gefapixant (iv bolus 0.3 mg/kg then infusion 0.1 mg/kg/h)
[3] = 0.3 μg intranasal given at 0 min, time 0 min
[4] = 0.3 μg intranasal given at 0 min, time 10 min
[5] = 0.3 μg intranasal given at 0 min, time 30 min
[6] = 0.3 μg intranasal given at 0 min, time 60 min
[7] = 0.3 μg intranasal given at 0 min, time 90 min
[8] = Gefapixant iv bolus 0.3 mg/kg then iv infusion 0.1 mg/kg/h for four hours, given at 0 min, time 0 min
[9] = Gefapixant iv bolus 0.3 mg/kg then iv infusion 0.1 mg/kg/h for four hours, given at 0 min, time 10 min
[10] = Gefapixant iv bolus 0.3 mg/kg then iv infusion 0.1 mg/kg/h for four hours, given at 0 min, time 30 min
[11] = Gefapixant iv bolus 0.3 mg/kg then iv infusion 0.1 mg/kg/h for four hours, given at 0 min, time 60 min
[12] = Gefapixant iv bolus 0.3 mg/kg then iv infusion 0.1 mg/kg/h for four hours, given at 0 min, time 120 min
[13] = Gefapixant iv bolus 0.3 mg/kg then iv infusion 0.1 mg/kg/h for four hours, given at 0 min, time 180 min
[14] = Gefapixant iv bolus 0.3 mg/kg then iv infusion 0.1 mg/kg/h for four hours, given at 0 min, time 240 min
[15] = Gefapixant iv bolus 0.3 mg/kg then iv infusion 0.1 mg/kg/h for four hours, given at 0 min, time 300 min

SMILES: COc1ccc(Cl)c(C(=O)N2C3CCC2CN(Cc2c(-c4ccc(C(C)C)cc4)nc4ncccn24)C3)n1 [(3-chloro-6-methoxypyridin-2-yl)(3-{[2-(4-isopropylphenyl)imidazo[1,2-a]pyrimidin-3-yl]methyl}-3,8-diazabicyclo[3.2.1]oct-8-yl)methanone]
- effectiveness of the dose on upper airway collapsibility ([1]; 0.3 μg intranasal): non effective dose
- Percent pigs without collaps −50 cm H2O, % [1, 3]: 0%
- Percent pigs without collaps −50 cm H2O, % [1, 4]: 33%
- Percent pigs without collaps −50 cm H2O, % [1, 5]: 0%
- Percent pigs without collaps −50 cm H2O, % [1, 6]: 0%
- Percent pigs without collaps −50 cm H2O, % [1, 7]: 0%
- Percent pigs without collaps −100 cm H2O, % [1, 3]: 0%
- Percent pigs without collaps −100 cm H2O, % [1, 4]: 33%
- Percent pigs without collaps −100 cm H2O, % [1, 5]: 0%
- Percent pigs without collaps −100 cm H2O, % [1, 6]: 0%
- Percent pigs without collaps −100 cm H2O, % [1, 7]: 0%
- Percent pigs without collaps −150 cm H2O, % [1, 3]: 0%
- Percent pigs without collaps −150 cm H2O, % [1, 4]: 0%
- Percent pigs without collaps −150 cm H2O, % [1, 5]: 0%
- Percent pigs without collaps −150 cm H2O, % [1, 6]: 0%
- Percent pigs without collaps −150 cm H2O, % [1, 7]: 0%

SMILES: COc1cc(C(C)C)c(Oc2cnc(N)nc2N)cc1S(N)(=O)=O [Gefapixant]
- free plasma concentrations [2]: about 100 nM
- Percent pigs without collaps −50 cm H2O, % [1, 8]: 0%
- Percent pigs without collaps −50 cm H2O, % [1, 9]: 0%
- Percent pigs without collaps −50 cm H2O, % [1, 10]: 100%
- Percent pigs without collaps −50 cm H2O, % [1, 11]: 100%
- Percent pigs without collaps −50 cm H2O, % [1, 12]: 0%
- Percent pigs without collaps −50 cm H2O, % [1, 13]: 0%
- Percent pigs without collaps −50 cm H2O, % [1, 14]: 0%
- Percent pigs without collaps −50 cm H2O, % [1, 15]: 0%
- Percent pigs without collaps −100 cm H2O, % [1, 8]: 0%
- Percent pigs without collaps −100 cm H2O, % [1, 9]: 0%
- Percent pigs without collaps −100 cm H2O, % [1, 10]: 100%
- Percent pigs without collaps −100 cm H2O, % [1, 11]: 0%
- Percent pigs without collaps −100 cm H2O, % [1, 12]: 0%
- Percent pigs without collaps −100 cm H2O, % [1, 13]: 0%
- Percent pigs without collaps −100 cm H2O, % [1, 14]: 0%
- Percent pigs without collaps −100 cm H2O, % [1, 15]: 0%
- Percent pigs without collaps −150 cm H2O, % [1, 8]: 0%
- Percent pigs without collaps −150 cm H2O, % [1, 9]: 0%
- Percent pigs without collaps −150 cm H2O, % [1, 10]: 100%
- Percent pigs without collaps −150 cm H2O, % [1, 11]: 0%
- Percent pigs without collaps −150 cm H2O, % [1, 12]: 0%
- Percent pigs without collaps −150 cm H2O, % [1, 13]: 0%
- Percent pigs without collaps −150 cm H2O, % [1, 14]: 0%
- Percent pigs without collaps −150 cm H2O, % [1, 15]: 0%
- effectiveness of the dose on upper airway collapsibility ([1]; iv bolus 0.3 mg/kg then iv infusion 0.1 mg/kg/h for four hours): minimal effective dose
- only time point after intravenous application at which upper airway collapsibility was inhibited at all three negative pressures in all pigs ([1]; iv bolus 0.3 mg/kg then iv infusion 0.1 mg/kg/h for four hours, −50, −100 and −150 cm H2O): 30 min

Reference: patent publication US20250057845A1, “COMBINATION OF A TASK1/3 CHANNEL BLOCKER WITH A P2X3 RECEPTOR ANTAGONIST FOR THE TREATMENT OF SLEEP APNEA” (BAYER AKTIENGESELLSCHAFT, priority 2020, published 2025)
